Test results taken from PMC4043872 (Chembiochem : a European journal of chemical biology, 2014).

Tests used:
[1] = molecular target: T1, ALDH1A2 (Homo sapiens, UniProt O94788); assay: ALDH1A2 activity assay, propionaldehyde/NAD+; assay type: biochemical; settings: up to 250 μM
T1 sequence (O94788 1-518): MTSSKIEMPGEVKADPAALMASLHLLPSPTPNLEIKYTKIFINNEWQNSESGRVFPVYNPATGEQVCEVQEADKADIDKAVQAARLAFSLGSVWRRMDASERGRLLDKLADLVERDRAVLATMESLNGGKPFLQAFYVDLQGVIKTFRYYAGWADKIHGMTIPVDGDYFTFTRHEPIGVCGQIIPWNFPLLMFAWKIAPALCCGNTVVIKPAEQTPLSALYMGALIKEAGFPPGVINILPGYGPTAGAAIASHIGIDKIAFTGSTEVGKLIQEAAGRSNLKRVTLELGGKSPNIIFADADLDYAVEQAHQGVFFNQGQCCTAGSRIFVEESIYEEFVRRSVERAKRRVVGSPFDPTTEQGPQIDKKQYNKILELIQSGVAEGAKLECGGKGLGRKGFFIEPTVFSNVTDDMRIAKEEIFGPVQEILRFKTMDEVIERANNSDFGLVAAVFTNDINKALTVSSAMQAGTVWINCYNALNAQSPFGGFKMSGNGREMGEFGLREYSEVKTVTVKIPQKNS

[2] = system: CCD-13Lu cells; assay: Colorimetric MTT assay for mafosfamide sensitivity, CCD-13Lu; settings: 19 hours, Figure 4C
[3] = molecular target: T2, ALDH3A1 (Homo sapiens, UniProt P30838); assay: Steady-state kinetics, mode of inhibition of ALDH3A1; assay type: biochemical
T2 sequence (P30838 1-453): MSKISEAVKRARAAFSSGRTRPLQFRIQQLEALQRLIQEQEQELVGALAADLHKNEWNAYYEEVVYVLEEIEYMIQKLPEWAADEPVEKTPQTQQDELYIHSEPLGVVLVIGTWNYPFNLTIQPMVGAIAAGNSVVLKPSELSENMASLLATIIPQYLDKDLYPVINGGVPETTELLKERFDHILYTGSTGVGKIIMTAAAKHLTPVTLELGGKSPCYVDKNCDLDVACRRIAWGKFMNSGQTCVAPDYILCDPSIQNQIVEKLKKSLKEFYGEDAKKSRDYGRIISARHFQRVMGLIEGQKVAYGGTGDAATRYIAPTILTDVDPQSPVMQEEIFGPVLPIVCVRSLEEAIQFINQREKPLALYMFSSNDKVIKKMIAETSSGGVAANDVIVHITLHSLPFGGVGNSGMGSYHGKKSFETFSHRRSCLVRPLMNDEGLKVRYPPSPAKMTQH

[4] = system: SF767 cells
[5] = molecular target: T3, ALDH1B1 (Homo sapiens, UniProt P30837); assay: ALDH1B1 activity assay, propionaldehyde/NAD+; assay type: biochemical; settings: up to 250 μM
T3 sequence (P30837 18-517): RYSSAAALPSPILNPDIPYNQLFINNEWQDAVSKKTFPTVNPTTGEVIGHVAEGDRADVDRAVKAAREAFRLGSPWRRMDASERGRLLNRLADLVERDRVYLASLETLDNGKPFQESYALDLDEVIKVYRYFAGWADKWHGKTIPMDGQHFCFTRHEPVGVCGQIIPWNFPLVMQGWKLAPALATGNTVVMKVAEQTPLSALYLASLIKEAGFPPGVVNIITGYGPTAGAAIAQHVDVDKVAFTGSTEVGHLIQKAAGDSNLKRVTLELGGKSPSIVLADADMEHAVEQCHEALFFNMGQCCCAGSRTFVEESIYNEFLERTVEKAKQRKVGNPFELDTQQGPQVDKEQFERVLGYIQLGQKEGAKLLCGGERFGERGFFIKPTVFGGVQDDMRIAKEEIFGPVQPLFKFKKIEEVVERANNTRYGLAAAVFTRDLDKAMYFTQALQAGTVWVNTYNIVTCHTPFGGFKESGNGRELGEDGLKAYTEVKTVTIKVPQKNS

[6] = molecular target: T4, ALDH1A3 (Homo sapiens, UniProt P47895); assay: ALDH1A3 activity assay, propionaldehyde/NAD+; assay type: biochemical; settings: up to 250 μM
T4 sequence (P47895 1-512): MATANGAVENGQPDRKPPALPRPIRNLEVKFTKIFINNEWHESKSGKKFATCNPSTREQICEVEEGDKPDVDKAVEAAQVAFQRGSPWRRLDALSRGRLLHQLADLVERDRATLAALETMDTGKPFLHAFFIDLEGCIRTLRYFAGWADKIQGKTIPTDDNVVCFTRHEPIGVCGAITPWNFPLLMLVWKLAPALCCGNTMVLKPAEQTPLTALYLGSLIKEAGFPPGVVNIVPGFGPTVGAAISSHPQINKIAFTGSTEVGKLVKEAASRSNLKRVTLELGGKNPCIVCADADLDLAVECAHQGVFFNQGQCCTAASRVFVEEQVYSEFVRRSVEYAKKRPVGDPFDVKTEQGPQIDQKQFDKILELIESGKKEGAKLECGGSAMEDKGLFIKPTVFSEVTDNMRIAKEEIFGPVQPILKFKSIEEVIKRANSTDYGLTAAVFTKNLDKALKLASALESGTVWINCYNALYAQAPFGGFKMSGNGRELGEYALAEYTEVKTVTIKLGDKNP

[7] = molecular target: T5, ALDH2 (Homo sapiens, UniProt P05091); assay: ALDH2 inhibition, propionaldehyde as substrate; assay type: biochemical; settings: up to 250 μM
T5 sequence (P05091 18-517): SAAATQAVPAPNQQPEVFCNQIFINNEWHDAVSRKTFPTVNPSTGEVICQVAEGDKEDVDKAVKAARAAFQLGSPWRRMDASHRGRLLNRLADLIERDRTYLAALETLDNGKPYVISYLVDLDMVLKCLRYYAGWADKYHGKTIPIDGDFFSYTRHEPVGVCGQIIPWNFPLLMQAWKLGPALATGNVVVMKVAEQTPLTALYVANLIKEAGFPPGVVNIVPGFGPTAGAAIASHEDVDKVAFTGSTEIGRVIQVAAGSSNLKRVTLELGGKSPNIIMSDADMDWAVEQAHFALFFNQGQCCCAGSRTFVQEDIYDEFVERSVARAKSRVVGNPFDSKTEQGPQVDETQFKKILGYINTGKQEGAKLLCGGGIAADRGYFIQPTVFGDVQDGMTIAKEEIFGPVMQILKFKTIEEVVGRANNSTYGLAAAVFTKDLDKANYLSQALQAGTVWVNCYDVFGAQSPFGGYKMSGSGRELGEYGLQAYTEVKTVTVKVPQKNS

[8] = molecular target: T6, ALDH3A1 activity in A549 cell lysates (Homo sapiens, UniProt P30838); assay: Cell lysate ALDH3A1 activity in presence and absence of CB29, A549; assay type: biochemical; settings: 50 μM CB29, […] NADP+, 1 mM benzaldehyde
T6 sequence (P30838 1-453): T2 sequence (P30838 1-453)

[9] = Formation of homogeneous solution; assay type: physicochemical; settings: in the presence of […] DMSO
[10] = molecular target: T2, ALDH3A1; assay: Recombinant ALDH3A1 activity in presence and absence of CB29; assay type: biochemical; settings: 50 μM CB29, […] NADP+, 1 mM benzaldehyde
[11] = molecular target: T7, ALDH1A1 (Homo sapiens, UniProt P00352); assay: ALDH1A1 inhibition, propionaldehyde as substrate; assay type: biochemical; settings: up to 250 μM
T7 sequence (P00352 1-501): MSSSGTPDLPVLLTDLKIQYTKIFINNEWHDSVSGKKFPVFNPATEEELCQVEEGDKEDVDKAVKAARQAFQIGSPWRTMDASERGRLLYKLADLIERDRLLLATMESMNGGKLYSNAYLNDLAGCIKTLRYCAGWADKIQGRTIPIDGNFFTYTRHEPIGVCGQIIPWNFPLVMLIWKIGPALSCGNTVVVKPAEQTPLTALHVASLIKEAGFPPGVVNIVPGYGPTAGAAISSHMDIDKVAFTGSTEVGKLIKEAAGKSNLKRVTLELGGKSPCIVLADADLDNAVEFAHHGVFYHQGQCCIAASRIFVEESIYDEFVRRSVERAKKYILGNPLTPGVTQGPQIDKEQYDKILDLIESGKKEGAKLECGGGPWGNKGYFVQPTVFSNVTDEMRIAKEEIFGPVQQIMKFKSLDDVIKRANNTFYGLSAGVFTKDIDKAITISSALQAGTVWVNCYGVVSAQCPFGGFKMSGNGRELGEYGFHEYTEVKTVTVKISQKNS

[12] = system: A549 cells; settings: 50 μM inhibitor alone, 19 hours, MTT, Figure 4A grey bars
[13] = molecular target: T8, ALDH3A1 activity in SF767 cell lysates (Homo sapiens, UniProt P30838); assay: Cell lysate ALDH3A1 activity in presence and absence of CB29, SF767; assay type: biochemical; settings: 50 μM CB29, […] NADP+, 1 mM benzaldehyde
T8 sequence (P30838 1-453): T2 sequence (P30838 1-453)

CC(=O)Nc1ccc(Nc2ccc(S(C)(=O)=O)cc2[N+](=O)[O-])cc1 [CB29, N-[4-{(4-(methylsulfonyl)-2-nitrophenyl)-4-amino}-phenyl]-acetamide]
inhibition toward ALDH1A2 [1]: < 5% | enhancement of mafosfamide sensitivity, CCD-13Lu (in words) ([2]; 50 μM inhibitor + 40 μM mafosfamide): did not show mafosfamide chemosensitivity | cytotoxicity / proliferation with inhibitor alone, CCD-13Lu (in words) ([2]; 50 μM inhibitor): unaffected | Ki ([3]; competitive versus varied benzaldehyde, fixed NADP+ […], 10 nM ALDH3A1): 4 µM | mode of inhibition ([3]; with respect to benzaldehyde): competitive | increase in mafosfamide chemosensitivity, SF767 ([4]; 50 μM inhibitor + […] mafosfamide, 19 hours, MTT, p<0.005): ~2 fold | effect on cell proliferation as single agent, SF767 (in words) ([4]; 50 μM inhibitor alone, 19 hours, MTT, Figure 4B grey bars): little effect | decrease of ED50 value of mafosfamide in the presence of inhibitor, SF767 ([4]; inhibitor 50 μM, Figure 5B): 1.6 fold | ED50 of mafosfamide in the presence of inhibitor, SF767 ([4]; inhibitor 50 μM, mafosfamide 0-250 μM, MTT, Figure 5B): 92 ± 4 µM | inhibition toward ALDH1B1 [5]: < 5% | inhibition toward ALDH1A3 [6]: < 5% | inhibition toward ALDH2 [7]: < 5% | decrease of ALDH3A1 activity in A549 cell lysate [8]: > 95% | homogeneous solution formed [9]: ≥ 100 µM | decrease of activity of recombinant ALDH3A1 [10]: ~ 97% | inhibition toward ALDH1A1 [11]: < 5% | effect on cell proliferation as single agent, A549 (in words) [12]: little effect | decrease of ALDH3A1 activity in SF767 cell lysate [13]: > 90%
